Active and inactive are the calls of the source. No cut-off for these calls is given here.
Columns and labels:
[1] = molecular target: T1, 5-hydroxytryptamine receptor 7 (Homo sapiens, UniProt P34969); experiment: Antagonist activity against human 5-HT7 receptor expressed in HEK293 cells assessed as inhibition of 5-HT-induced cAMP levels at 1 uM; type: functional, cell-based
Mus musculus [2] = experiment: Toxicity in Swiss mouse assessed as spontaneous locomotor activity at 2.5 to 20 mg/kg, ip measured during 2 to 6 mins; type: organism-based; set-up: route intraperitoneal; conditions: in vivo
Mus musculus [3] = experiment: Antidepressant-like activity in Swiss mouse assessed as reduction in immobility time at 10 mg/kg, ip administered 60 mins before test; type: functional; set-up: scale not given: the % may be the effect or the level left; conditions: route intraperitoneal
[4] = molecular target: T2, 5-hydroxytryptamine receptor 1A (Rattus norvegicus) (UniProt P19327); experiment: Displacement of [3H]8-OH-DPAT from rat hippocampus 5-HT1A receptor assessed as total radioligand binding at 1.66 x 10^-7 M incubated for 20 mins by microbeta plate reader based method
T2 sequence (whole entry): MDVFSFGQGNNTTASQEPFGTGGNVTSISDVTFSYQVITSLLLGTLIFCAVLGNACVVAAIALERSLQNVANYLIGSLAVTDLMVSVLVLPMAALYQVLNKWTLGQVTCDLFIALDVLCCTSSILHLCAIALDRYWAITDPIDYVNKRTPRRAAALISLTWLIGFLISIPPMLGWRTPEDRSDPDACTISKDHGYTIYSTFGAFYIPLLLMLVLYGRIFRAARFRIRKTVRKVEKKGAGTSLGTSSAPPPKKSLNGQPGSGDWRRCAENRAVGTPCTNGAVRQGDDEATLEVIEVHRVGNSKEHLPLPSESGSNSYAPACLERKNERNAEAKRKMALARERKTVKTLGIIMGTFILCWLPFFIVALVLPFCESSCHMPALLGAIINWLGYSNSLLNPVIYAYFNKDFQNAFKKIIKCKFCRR

[5] = molecular target: T3, 5-hydroxytryptamine receptor 1A (Homo sapiens) (UniProt P08908); experiment: Agonist activity at human 5-HT1A receptor expressed in HEK293 cells assessed as stimulation of cAMP levels at 1 uM relative to 8-OH-DPAT; type: functional, cell-based
T3 sequence (whole entry): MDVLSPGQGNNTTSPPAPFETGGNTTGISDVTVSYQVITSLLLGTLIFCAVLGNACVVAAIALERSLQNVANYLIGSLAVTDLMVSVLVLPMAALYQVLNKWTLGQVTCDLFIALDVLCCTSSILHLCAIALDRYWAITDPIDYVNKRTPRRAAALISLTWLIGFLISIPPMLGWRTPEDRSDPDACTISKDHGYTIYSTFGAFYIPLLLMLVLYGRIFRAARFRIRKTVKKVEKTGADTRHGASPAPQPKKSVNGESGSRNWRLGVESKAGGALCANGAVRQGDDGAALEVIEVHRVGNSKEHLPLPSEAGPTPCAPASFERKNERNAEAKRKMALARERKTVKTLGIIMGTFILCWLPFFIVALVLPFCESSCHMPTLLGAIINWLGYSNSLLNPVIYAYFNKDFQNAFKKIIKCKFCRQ

[6] = molecular target: T3, 5-hydroxytryptamine receptor 1A (Homo sapiens); experiment: Agonist activity at human 5-HT1A receptor expressed in HEK293 cells assessed as stimulation of cAMP levels at 0.1 uM relative to 8-OH-DPAT; type: functional, cell-based
[7] = molecular target: T1, 5-hydroxytryptamine receptor 7; experiment: Agonist activity at human 5-HT7 receptor expressed in HEK293 cells assessed as stimulation of cAMP levels at 1 uM relative to 5HT; type: functional, cell-based
D(2) dopamine receptor [8] = molecular target: T4, D(2) dopamine receptor (Homo sapiens, UniProt P14416); experiment: Antagonist activity against human dopamine D2L receptor expressed in HEK293 cells assessed as inhibition of […]-induced cAMP levels at 0.1 uM; type: functional, cell-based
T4 sequence (P14416 whole entry): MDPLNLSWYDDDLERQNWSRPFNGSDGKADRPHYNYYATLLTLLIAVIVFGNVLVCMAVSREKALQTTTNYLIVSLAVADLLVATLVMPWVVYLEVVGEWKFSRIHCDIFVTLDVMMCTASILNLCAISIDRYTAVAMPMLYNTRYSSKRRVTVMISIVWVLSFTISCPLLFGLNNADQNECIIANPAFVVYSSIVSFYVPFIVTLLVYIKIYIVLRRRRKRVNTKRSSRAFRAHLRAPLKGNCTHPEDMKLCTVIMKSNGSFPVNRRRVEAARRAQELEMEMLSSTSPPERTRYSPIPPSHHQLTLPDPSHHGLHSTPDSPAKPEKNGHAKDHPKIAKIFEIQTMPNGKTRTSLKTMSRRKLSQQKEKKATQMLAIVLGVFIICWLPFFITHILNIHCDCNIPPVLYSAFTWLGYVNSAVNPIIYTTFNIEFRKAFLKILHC

D(2) dopamine receptor [9] = molecular target: T4, D(2) dopamine receptor; experiment: Agonist activity at human D2L receptor expressed in HEK293 cells assessed as stimulation of cAMP levels at 0.1 uM relative to dopamine; type: functional, cell-based
[10] = molecular target: T2, 5-hydroxytryptamine receptor 1A (Rattus norvegicus); experiment: Displacement of [3H]8-OH-DPAT from rat hippocampus 5-HT1A receptor assessed as total radioligand binding at 1 uM incubated for 20 mins by microbeta plate reader based method
[11] = molecular target: D(3) dopamine receptor (Homo sapiens) (UniProt P35462); experiment: Displacement of [3H]N-methylspiperone from dopamine D3 receptor (unknown origin) assessed as total radioligand binding at 1 uM incubated for 60 mins by microbeta plate reader based method
D(3) dopamine receptor (Homo sapiens), sequence (P35462 whole entry): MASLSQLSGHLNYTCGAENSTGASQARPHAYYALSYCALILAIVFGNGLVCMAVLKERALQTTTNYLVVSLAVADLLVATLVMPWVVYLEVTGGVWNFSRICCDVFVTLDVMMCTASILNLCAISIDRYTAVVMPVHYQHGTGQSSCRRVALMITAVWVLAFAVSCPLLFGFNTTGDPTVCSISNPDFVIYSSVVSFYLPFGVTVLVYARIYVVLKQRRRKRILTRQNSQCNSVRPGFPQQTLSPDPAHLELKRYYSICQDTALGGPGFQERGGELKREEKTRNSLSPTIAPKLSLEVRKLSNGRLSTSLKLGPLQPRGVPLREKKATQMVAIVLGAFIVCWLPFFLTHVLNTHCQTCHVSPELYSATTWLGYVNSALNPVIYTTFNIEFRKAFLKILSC

[12] = molecular target: T1, 5-hydroxytryptamine receptor 7; experiment: Agonist activity at human 5-HT7 receptor expressed in HEK293 cells assessed as stimulation of cAMP levels at 0.1 uM relative to 5HT; type: functional, cell-based
[13] = Selectivity index, ratio of Ki for rat hippocampus 5-HT1A receptor to Ki for human recombinant 5-HT7 receptor
[14] = molecular target: T3, 5-hydroxytryptamine receptor 1A (Homo sapiens); experiment: Antagonist activity against human 5-HT1A receptor expressed in HEK293 cells assessed as inhibition of […]-induced cAMP levels at 1 uM; type: functional, cell-based
[15] = molecular target: T1, 5-hydroxytryptamine receptor 7; experiment: Antagonist activity against human 5-HT7 receptor expressed in HEK293 cells assessed as inhibition of 5-HT-induced cAMP levels at 0.1 uM; type: functional, cell-based
[16] = molecular target: T5, 5-hydroxytryptamine receptor 1A (Rattus norvegicus, UniProt P19327); experiment: Displacement of [3H]8-OH-DPAT from rat hippocampus 5-HT1A receptor incubated for 20 mins by microbeta plate reader based method
T5 sequence (P19327 whole entry): T2 sequence (whole entry)

[17] = molecular target: D(3) dopamine receptor (Homo sapiens) (UniProt P35462); experiment: Displacement of [3H]N-methylspiperone from dopamine D3 receptor (unknown origin) assessed as total radioligand binding at 1.66 x 10^-7 M incubated for 60 mins by microbeta plate reader based method
[18] = molecular target: T6, 5-hydroxytryptamine receptor 6 (Homo sapiens, UniProt P50406); experiment: Displacement of [3H]LSD from human recombinant 5-HT6 receptor expressed in HEK293 cells assessed as total radioligand binding at 1 uM incubated for 60 mins by microbeta plate reader based method; type: cell-based
T6 sequence (P50406 whole entry): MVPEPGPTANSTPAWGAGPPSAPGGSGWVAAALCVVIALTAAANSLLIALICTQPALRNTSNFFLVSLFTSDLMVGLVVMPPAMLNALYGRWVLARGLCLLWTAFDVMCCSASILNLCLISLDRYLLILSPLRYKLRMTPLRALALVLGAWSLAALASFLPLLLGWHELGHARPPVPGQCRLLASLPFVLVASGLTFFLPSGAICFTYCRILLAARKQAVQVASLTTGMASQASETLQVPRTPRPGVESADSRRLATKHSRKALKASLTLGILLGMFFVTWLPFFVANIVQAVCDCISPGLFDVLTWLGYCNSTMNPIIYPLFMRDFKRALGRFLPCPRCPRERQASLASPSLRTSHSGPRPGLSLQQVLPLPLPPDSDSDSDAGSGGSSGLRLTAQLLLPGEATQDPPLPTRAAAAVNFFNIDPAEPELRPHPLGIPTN

D(2) dopamine receptor [19] = molecular target: T4, D(2) dopamine receptor; experiment: Displacement of [3H]N-methylspiperone from human recombinant dopamine D2 receptor expressed in CHOK1 cells incubated for 60 mins by microbeta plate reader based method; type: cell-based, CHO-K1
[20] = molecular target: T3, 5-hydroxytryptamine receptor 1A (Homo sapiens); experiment: Antagonist activity against human 5-HT1A receptor expressed in HEK293 cells assessed as inhibition of […]-induced cAMP levels at 0.1 uM; type: functional, cell-based
D(2) dopamine receptor [21] = molecular target: T4, D(2) dopamine receptor; experiment: Agonist activity at human D2L receptor expressed in HEK293 cells assessed as stimulation of cAMP levels at 1 uM relative to dopamine; type: functional, cell-based
[22] = molecular target: T6, 5-hydroxytryptamine receptor 6; experiment: Displacement of [3H]LSD from human recombinant 5-HT6 receptor expressed in HEK293 cells assessed as total radioligand binding at 1.66 x 10^-7 M incubated for 60 mins by microbeta plate reader based method; type: cell-based
Mus musculus [23] = experiment: Antidepressant-like activity in Swiss mouse assessed as reduction in immobility time at 2.5 to 20 mg/kg, ip administered 60 mins before test; type: functional, organism-based
[24] = molecular target: T1, 5-hydroxytryptamine receptor 7; experiment: Displacement of [3H]LSD from human recombinant 5-HT7 receptor expressed in CHOK1 cells incubated for 60 mins by microbeta plate reader based method; type: cell-based, CHO-K1
Mus musculus [25] = experiment: Anxiolytic-like activity in Swiss mouse assessed as increase in number of punished crossings measured during 60 seconds period at 5 to 20 mg/kg, ip by four-plate test; type: functional, organism-based
D(2) dopamine receptor [26] = molecular target: T4, D(2) dopamine receptor; experiment: Antagonist activity against human dopamine D2L receptor expressed in HEK293 cells assessed as inhibition of […]-induced cAMP levels at 1 uM; type: functional, cell-based
Mus musculus [27] = experiment: Anxiolytic-like activity in Swiss mouse assessed as increase in number of punished crossings measured during 60 seconds period at 2.5 to 10 mg/kg, ip by four-plate test; type: functional, organism-based
Mus musculus [28] = experiment: Antidepressant-like activity in Swiss mouse assessed as reduction in immobility time at 2.5 to 10 mg/kg, ip administered 60 mins before test; type: functional, organism-based
[29] = molecular target: T6, 5-hydroxytryptamine receptor 6; experiment: Displacement of [3H]LSD from human recombinant 5-HT6 receptor expressed in HEK293 cells incubated for 60 mins by microbeta plate reader based method; type: cell-based
Mus musculus [30] = experiment: Toxicity in Swiss mouse assessed as spontaneous locomotor activity at 2.5 to 10 mg/kg, ip measured during 2 to 6 mins; type: organism-based; set-up: route intraperitoneal; conditions: in vivo
Mus musculus [31] = experiment: Toxicity in Swiss mouse assessed as spontaneous locomotor activity at 2.5 to 10 mg/kg, ip; type: organism-based; set-up: dose 2.5-10 mg/kg, route intraperitoneal; conditions: in vivo
Mus musculus [32] = experiment: Antidepressant-like activity in Swiss mouse assessed as reduction in immobility time at 5 mg/kg, ip administered 60 mins before test; type: functional; set-up: scale not given: the % may be the effect or the level left; conditions: route intraperitoneal
Mus musculus [33] = experiment: Anxiolytic-like activity in Swiss mouse assessed as increase in number of punished crossings measured during 60 seconds period at 25 mg/kg, ip by four-plate test; type: functional; conditions: route intraperitoneal
Mus musculus [34] = experiment: Toxicity in Swiss mouse assessed as spontaneous locomotor activity at 0.625 to 5 mg/kg, ip measured during 2 to 6 mins; type: organism-based; set-up: route intraperitoneal; conditions: in vivo
Mus musculus [35] = experiment: Anxiolytic-like activity in Swiss mouse assessed as increase in number of punished crossings measured during 60 seconds period at 1.25 to 5 mg/kg, ip by four-plate test; type: functional, organism-based
Mus musculus [36] = experiment: Potency index, ratio of MED for imipramine to MED for compound for antidepressant-like activity in ip dosed Swiss mouse; type: functional
Mus musculus [37] = experiment: Antidepressant-like activity in ip dosed Swiss mouse assessed as reduction in immobility time administered 60 mins before test; type: functional; conditions: read-out: MED
Mus musculus [38] = experiment: Antidepressant-like activity in Swiss mouse assessed as reduction in immobility time at 1.25 mg/kg, ip administered 60 mins before test; type: functional; set-up: scale not given: the % may be the effect or the level left; conditions: route intraperitoneal
Mus musculus [39] = experiment: Antidepressant-like activity in Swiss mouse assessed as reduction in immobility time at 0.625 to 5 mg/kg, ip administered 60 mins before test; type: functional, organism-based
Mus musculus [40] = experiment: Antidepressant-like activity in Swiss mouse assessed as reduction in immobility time at 1.25 to 5 mg/kg, ip administered 60 mins before test; type: functional, organism-based
Mus musculus [41] = experiment: Anxiolytic-like activity in Swiss mouse assessed as increase in number of punished crossings measured during 60 seconds period at 5 mg/kg, ip by four-plate test; type: functional; conditions: route intraperitoneal

T1 sequence (P34969 whole entry): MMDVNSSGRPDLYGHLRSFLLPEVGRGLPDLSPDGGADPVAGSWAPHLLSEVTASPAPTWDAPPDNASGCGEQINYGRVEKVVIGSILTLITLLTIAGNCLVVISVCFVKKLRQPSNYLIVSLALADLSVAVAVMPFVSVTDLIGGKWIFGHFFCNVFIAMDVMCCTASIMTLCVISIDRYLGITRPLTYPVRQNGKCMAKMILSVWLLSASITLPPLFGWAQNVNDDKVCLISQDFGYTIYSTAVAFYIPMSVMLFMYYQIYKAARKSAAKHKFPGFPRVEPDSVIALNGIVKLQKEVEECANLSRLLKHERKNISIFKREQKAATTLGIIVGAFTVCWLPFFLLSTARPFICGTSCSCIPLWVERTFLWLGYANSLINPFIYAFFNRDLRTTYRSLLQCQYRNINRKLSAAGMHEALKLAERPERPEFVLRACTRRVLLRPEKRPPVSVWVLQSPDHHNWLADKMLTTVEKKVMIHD

SMILES	inhibition [1]	Activity [4]	Activity [5]	Activity [6]	Activity [7]	inhibition (D(2) dopamine receptor [8])	Activity (D(2) dopamine receptor [9])	Activity [10]	Activity [11]	Activity [12]	Ratio Ki [13]	inhibition [14]	inhibition [15]	Ki [16]	Activity [17]	Ki (D(2) dopamine receptor [19])	inhibition [20]	Activity (D(2) dopamine receptor [21])	Ki [24]	inhibition (D(2) dopamine receptor [26])	other results
Cn1c(=O)c2c(nc3n(CCCCN4CCN(c5ccccc5O)CC4)c(-c4ccccc4)cn23)n(C)c1=O	64.3%	42%	37.4%	23.4%	-2.2%	45%	19.2%	7%	39%	4.5%	0.2	104%	7.7%	6 nM	81%	4 nM	82.4%	28%	30 nM	77.8%	Activity (Mus musculus [2]): Non-toxic; Activity (Mus musculus [3]): 17%; Activity [18]: 37%; Activity [22]: 69%; Activity (Mus musculus [23]): Active; Activity (Mus musculus [25]): inactive
Cc1cn2c3c(=O)n(C)c(=O)n(C)c3nc2n1CCCCCN1CCN(c2ccc(Cl)c(Cl)c2)CC1	–	–	18.7%	2.3%	–	20.9%	0.8%	–	–	–	0.19	87.6%	–	22 nM	–	59 nM	92.9%	10%	111 nM	55.9%	Activity (Mus musculus [27]): Active; Activity (Mus musculus [28]): Active; Ki [29]: 405 nM; Activity (Mus musculus [30]): Non-toxic; Activity (Mus musculus [31]): Non-toxic; Activity (Mus musculus [32]): 25%; Activity (Mus musculus [33]): 124%
Cn1c(=O)c2c(nc3n(CCCCCN4CCN(c5ccc(Cl)cc5)CC4)c(-c4ccccc4)cn23)n(C)c1=O	22.1%	–	2.3%	-7%	9.1%	16.5%	3.1%	–	–	1.9%	0.7	34.7%	-8.4%	93 nM	–	9 nM	71.8%	7.7%	122 nM	75.6%	Activity (Mus musculus [34]): Non-toxic; Activity (Mus musculus [35]): inactive; Ki [29]: 45 nM; Ratio (Mus musculus [36]): 4; minimal effective dose (Mus musculus [37]): 1.25 mg/kg; Activity (Mus musculus [38]): 40%; Activity (Mus musculus [39]): Active
Cn1c(=O)c2c(nc3n(CCCCCN4CCN(c5ccccc5O)CC4)c(-c4ccccc4)cn23)n(C)c1=O	58.9%	47%	32.5%	22.9%	5.3%	12.2%	12.3%	9%	39%	5.1%	0.2	91.8%	11%	9 nM	81%	24 nM	68.3%	7.7%	43 nM	71.2%	Activity (Mus musculus [27]): Active; Activity [18]: 60%; Activity (Mus musculus [31]): Non-toxic; Activity [22]: 87%; Activity (Mus musculus [40]): inactive; Activity (Mus musculus [41]): 90%

— ChEMBL document CHEMBL3421538, “Structure-activity relationships and molecular studies of novel arylpiperazinylalkyl purine-2,4-diones and purine-2,4,8-triones with antidepressant and anxiolytic-like activity” (Eur J Med Chem, 2015)
